Data: PubChem BioAssay (NCI)
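Results reflect a 48-hour exposure of cells in 96-well plates to compound at five concentrations. TGI marks complete inhibition of growth.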

Legend:
Test in all cases: NCI anticancer screen, dose series, 48 h
[1] = test system: SF-268 CNS
[2] = test system: OVCAR-5 ovarian
[3] = test system: LXFL 529 NSCLC
[4] = test system: DLD-1 colon
[5] = test system: SN12C renal
[6] = test system: IGROV1 ovarian
[7] = test system: CCRF-CEM leukemia
[8] = test system: HT29 colon
[9] = test system: NCI-H23 lung
[10] = test system: RXF-631 renal
[11] = test system: COLO 205 colon
[12] = test system: HL-60(TB) leukemia
[13] = test system: UACC-257 melanoma
[14] = test system: DMS 273 small cell lung
[15] = test system: DMS 114 small cell lung
[16] = test system: A549 NSCLC
[17] = test system: OVCAR-4 ovarian
[18] = test system: RPMI-8226 leukemia
[19] = test system: MALME-3M melanoma
[20] = test system: HCT-15 colon
[21] = test system: U251 CNS
[22] = test system: SR leukemia
[23] = test system: HCC-2998 colon
[24] = test system: KM20L2 colon
[25] = test system: NCI-H460 lung
[26] = test system: SW-620 colon
[27] = test system: SK-MEL-5 melanoma
[28] = test system: RXF 393 renal
[29] = test system: M19-MEL melanoma
[30] = test system: HOP-92 NSCLC
[31] = test system: CAKI-1 renal
[32] = test system: SNB-78 CNS
[33] = test system: NCI-H522 lung
[34] = test system: XF 498 CNS
[35] = test system: SK-OV-3 ovarian
[36] = test system: UACC-62 melanoma
[37] = test system: SF-539 CNS
[38] = test system: SK-MEL-28 melanoma
[39] = test system: HOP-62 NSCLC
[40] = test system: NCI-H226 lung
[41] = test system: M14 melanoma
[42] = test system: SF-295 CNS
[43] = test system: MOLT-4 leukemia
[44] = test system: 786-0 renal
[45] = test system: K-562 leukemia
[46] = test system: KM12 colon
[47] = test system: OVCAR-8 ovarian
[48] = test system: ACHN renal
[49] = test system: EKVX NSCLC
[50] = test system: OVCAR-3 ovarian
[51] = test system: A498 renal
[52] = test system: SK-MEL-2 melanoma
[53] = test system: HCT-116 colon
[54] = test system: UO-31 renal
[55] = test system: SNB-75 CNS
[56] = test system: SNB-19 CNS
[57] = test system: HOP-18 NSCLC
[58] = test system: TK-10 renal
[59] = test system: LOX IMVI melanoma

`COc1ccc(C(=O)C(C(=O)CC(=O)Nc2cccc(C(F)(F)F)c2)c2ccc(OC)cc2)cc1` (stereo not drawn) showed a TGI [1] of over 100 µM, a TGI [2] of over 100 µM and a TGI [3] of over 100 µM. The TGI [4] was over 100 µM, the TGI [5] was over 100 µM and the TGI [6] was over 100 µM. The TGI [7] was over 100 µM, the TGI [8] was over 100 µM and the TGI [9] was over 100 µM. For the same molecule, the TGI [10] was over 100 µM, the TGI [11] was over 100 µM and the TGI [12] was over 100 µM. It also gave a TGI [13] of over 100 µM, a TGI [14] of over 100 µM and a TGI [15] of over 100 µM. For the same molecule, the TGI [16] was over 100 µM, the TGI [17] was over 100 µM and the TGI [18] was over 100 µM. The TGI [19] was over 100 µM, the TGI [20] was over 100 µM and the TGI [21] was over 100 µM. It also gave a TGI [22] of over 100 µM, a TGI [23] of over 100 µM and a TGI [24] of over 100 µM. For the same molecule, the TGI [25] was over 100 µM, the TGI [26] was over 100 µM and the TGI [27] was over 100 µM. It also gave a TGI [28] of over 100 µM, a TGI [29] of over 100 µM and a TGI [30] of over 100 µM. The TGI [31] was over 100 µM, the TGI [32] was over 100 µM and the TGI [33] was over 100 µM. The TGI [34] was over 100 µM, the TGI [35] was over 100 µM and the TGI [36] was over 100 µM. It also gave a TGI [37] of over 100 µM, a TGI [38] of over 100 µM and a TGI [39] of over 100 µM. The TGI [40] was over 100 µM, the TGI [41] was over 100 µM and the TGI [42] was over 100 µM. For the same molecule, the TGI [43] was over 100 µM, the TGI [44] was over 100 µM and the TGI [45] was over 100 µM. It also gave a TGI [46] of over 100 µM, a TGI [47] of over 100 µM and a TGI [48] of over 100 µM. For the same molecule, the TGI [49] was over 100 µM, the TGI [50] was over 100 µM and the TGI [51] was over 100 µM. For the same molecule, the TGI [52] was over 100 µM, the TGI [53] was over 100 µM and the TGI [54] was over 100 µM. It also gave a TGI [55] of 85.5 µM and a TGI [56] of over 100 µM.

`O=C(O)NC(c1ccccc1)C(NC(=O)c1ccccc1)c1ccccc1` (stereo not drawn) showed a TGI [1] of over 100 µM, a TGI [2] of over 100 µM and a TGI [4] of over 100 µM. It also gave a TGI [5] of over 100 µM, a TGI [6] of over 100 µM and a TGI [8] of over 100 µM. It also gave a TGI [9] of over 100 µM, a TGI [11] of over 100 µM and a TGI [13] of over 100 µM. It also gave a TGI [15] of over 100 µM, a TGI [16] of over 100 µM and a TGI [17] of over 100 µM. It also gave a TGI [18] of over 100 µM, a TGI [19] of over 100 µM and a TGI [20] of over 100 µM. It also gave a TGI [21] of over 100 µM, a TGI [57] of over 100 µM and a TGI [22] of over 100 µM. It also gave a TGI [24] of over 100 µM, a TGI [25] of over 100 µM and a TGI [26] of over 100 µM. It also gave a TGI [28] of over 100 µM, a TGI [29] of over 100 µM and a TGI [30] of over 100 µM. For the same molecule, the TGI [31] was over 100 µM, the TGI [58] was over 100 µM and the TGI [32] was over 100 µM. For the same molecule, the TGI [34] was over 100 µM, the TGI [36] was over 100 µM and the TGI [37] was over 100 µM. It also gave a TGI [38] of over 100 µM, a TGI [39] of over 100 µM and a TGI [42] of over 100 µM. For the same molecule, the TGI [44] was over 100 µM, the TGI [45] was over 100 µM and the TGI [46] was over 100 µM. It also gave a TGI [47] of over 100 µM, a TGI [48] of over 100 µM and a TGI [49] of over 100 µM. The TGI [50] was over 100 µM, the TGI [51] was over 100 µM and the TGI [52] was over 100 µM. For the same molecule, the TGI [53] was over 100 µM, the TGI [59] was over 100 µM and the TGI [55] was over 100 µM. It also gave a TGI [56] of over 100 µM.

With `CC(=O)NC1=C(NC(C)(C)C)C(=O)c2ccccc2C1=O` the TGI [1] was 55.6 µM, the TGI [2] was over 100 µM and the TGI [3] was 31.7 µM. The TGI [4] was 34.3 µM, the TGI [5] was 34.8 µM and the TGI [6] was 70.4 µM. It also gave a TGI [7] of 9.28 µM, a TGI [8] of 49.7 µM and a TGI [9] of 35.2 µM. The TGI [11] was over 100 µM, the TGI [12] was 5.6 µM and the TGI [13] was 29.4 µM. The TGI [14] was 45.4 µM, the TGI [15] was 54.3 µM and the TGI [16] was over 100 µM. It also gave a TGI [17] of 36.6 µM, a TGI [18] of 37.1 µM and a TGI [19] of 33.9 µM. The TGI [20] was 34.5 µM, the TGI [21] was over 100 µM and the TGI [57] was 28.4 µM. For the same molecule, the TGI [23] was over 100 µM, the TGI [24] was 38 µM and the TGI [25] was 41.1 µM. It also gave a TGI [26] of 30.1 µM, a TGI [27] of 32.5 µM and a TGI [28] of 33.3 µM. It also gave a TGI [29] of 28.7 µM, a TGI [30] of 34.6 µM and a TGI [31] of 30 µM. It also gave a TGI [58] of 33.5 µM, a TGI [32] of 99.1 µM and a TGI [34] of 23.1 µM. The TGI [35] was over 100 µM, the TGI [36] was 27.3 µM and the TGI [37] was 33.3 µM. It also gave a TGI [38] of 43.1 µM, a TGI [39] of over 100 µM and a TGI [40] of 27.6 µM. For the same molecule, the TGI [41] was 31.1 µM, the TGI [42] was over 100 µM and the TGI [43] was 26.7 µM. It also gave a TGI [44] of 11.6 µM, a TGI [45] of 25.2 µM and a TGI [46] of 92.9 µM. It also gave a TGI [47] of 39.5 µM, a TGI [48] of over 100 µM and a TGI [49] of 99.2 µM. It also gave a TGI [50] of 33.1 µM, a TGI [51] of 50.2 µM and a TGI [52] of 42.9 µM. The TGI [53] was 64.2 µM, the TGI [54] was 32.9 µM and the TGI [59] was 30.8 µM. The TGI [55] was 26.5 µM and the TGI [56] was over 100 µM.

`COc1ccc(/C(=N\NC(=O)C(=O)NN)C(c2ccc(OC)cc2)C2(O)C(=O)Nc3ccccc32)cc1` (stereo not drawn) gave a TGI [1] of over 100 µM, a TGI [2] of over 100 µM and a TGI [3] of over 100 µM. It also gave a TGI [4] of over 100 µM, a TGI [5] of over 100 µM and a TGI [6] of over 100 µM. The TGI [8] was over 100 µM, the TGI [9] was over 100 µM and the TGI [10] was over 100 µM. For the same molecule, the TGI [11] was over 100 µM, the TGI [14] was over 100 µM and the TGI [15] was over 100 µM. For the same molecule, the TGI [16] was over 100 µM, the TGI [18] was over 100 µM and the TGI [19] was over 100 µM. It also gave a TGI [20] of over 100 µM, a TGI [21] of over 100 µM and a TGI [22] of over 100 µM. It also gave a TGI [24] of over 100 µM, a TGI [25] of over 100 µM and a TGI [26] of over 100 µM. It also gave a TGI [27] of over 100 µM, a TGI [29] of over 100 µM and a TGI [30] of over 100 µM. The TGI [31] was over 100 µM, the TGI [58] was over 100 µM and the TGI [32] was over 100 µM. The TGI [33] was over 100 µM, the TGI [34] was over 100 µM and the TGI [35] was over 100 µM. The TGI [36] was over 100 µM, the TGI [37] was over 100 µM and the TGI [38] was over 100 µM. For the same molecule, the TGI [39] was over 100 µM, the TGI [40] was over 100 µM and the TGI [41] was over 100 µM. The TGI [43] was over 100 µM, the TGI [44] was over 100 µM and the TGI [45] was over 100 µM. The TGI [46] was over 100 µM, the TGI [47] was over 100 µM and the TGI [48] was over 100 µM. For the same molecule, the TGI [49] was over 100 µM, the TGI [50] was over 100 µM and the TGI [51] was over 100 µM. It also gave a TGI [52] of over 100 µM, a TGI [53] of over 100 µM and a TGI [54] of 82.1 µM. It also gave a TGI [55] of over 100 µM and a TGI [56] of over 100 µM.
